{"source": "paper PMC5617480", "about": "(Oncotarget, 2017)", "key": {"MGC80-3 cells": {"system": "MGC80-3 cells", "design": "method as in earlier work", "settings": "MGC80-3, 48 h; ref [1]; cited from earlier work"}, "[1]": {"system": "HTG21 (human telomeric) G4", "test": "FID assay", "format": "binding", "settings": "for HTG21DC50: FID; for ctDNADC50/HTG21DC50: FID selectivity ratio", "procedure": "(§1) We asked whether chiral platinum(II) complexes 4–6 have the ability to bind to G-quadruplex DNA. To address this, FRET assays, CD spectroscopy, G4-FID assays, and fluorescence titration analysis were performed. […] For G4-HTG21, the ^G4DC50 values of complexes 4–6 were 1.23, 1.26 and 0.99 μM, respectively; while, for G4-Pu27, the ^G4DC50 values were 1.01, 0.89, and 0.82 μM, respectively. In addition, the ^ctDNADC50/^G4DC50 ratio of the HTG21 and Pu27 G4s treated with complexes 4–6 was in the range of 50.54-90.65 and 71.56-110.67 folds, respectively. To further evaluate the binding ability of complexes 4–6 to Pu27 and HTG21G4s, CD spectroscopy and fluorescence titration analysis were performed. […] The quenching ability of complexes 4–6 to HTG21 and Pu27 G4 DNA fluorescence can be quantitatively estimated by their respective quenching constant (Kq), which was derived from the Stern-Volmer quenching equation. […] Finally, the selective binding of complexes 4–6 towards G4 DNA was analyzed by FRET-melting assays. […] In contrast, the ΔTm value for the F32T+H20M duplex DNA in the presence of complexes 4–6 was 1.18, 1.34, and 0.78 °C under the same conditions (Figure 4A). Altogether, our data indicated complexes 4–6, especially complex 6, is the best binder to G4 DNA, which caused DNA complex displaying the highest thermodynamic stability. […]\n(§2) Supplementary Figure 20: FID results onto 4 (A), 5 (B) and 6 (C) toward DNA in sodium cacodylate buffer solution. […]"}, "ctDNA": {"system": "ctDNA", "test": "FID assay", "format": "binding", "settings": "for ctDNADC50: FID; for ctDNADC50/ctDNADC50: FID selectivity ratio", "procedure": "as §1, §2"}, "Pu27 (c-myc) G4": {"system": "Pu27 (c-myc) G4", "test": "FID assay", "format": "binding", "settings": "for Pu27DC50: FID; for ctDNADC50/Pu27DC50: FID selectivity ratio", "procedure": "as §1, §2"}, "BEL-7402 xenograft": {"system": "BEL-7402 xenograft", "test": "In vivo tumor growth inhibition, BEL-7402 xenograft model", "settings": "BEL-7402 model; for inhibition in weight: p<0.05; for Average tumor weight (mean ± SD g) / Body weight (End) / RBW (%) (End) / Tumor volume (End): day 18", "procedure": "In vivo anticancer efficacy of chiral platinum(II) complex 6 was evaluated using BEL-7404 and BEL-7402 xenograft mouse models. BEL-7404 and BEL-7402 cells were injected into nude mice. The mice were randomized into the control group, complex 6-treated group, and the positive control group (n = 6/group). When the volume of tumor was about 80 mm^3, complex 6 was given at a high (8 mg/kg) and low (4 mg/kg) dosage daily for 18 days, 5-FU (20 mg/kg every two days) and Cisplatin (2 mg/kg every two days) were used as a positive control in the BEL-7404 and BEL-7402 xenograft model, respectively.\nTo evaluate the vivo anticancer efficacy of complex 6, BEL-7404 and BEL-7402 xenograft mouse models (BALB/c nude mice, female for BEL-7404 model, 17–20 g, 6–7 weeks old; male for BEL-7402 model, 18-21 g, 6–7 weeks old) were used. Furthermore, animal used, maximum tolerated dose (MTD) analysis, acute toxicity studies and antitumor activity toward BEL-7404 and BEL-7402 models in vivo of complex 6, was similar to Chen reported.\nH21T (3.5 pmol; 5’-G [T AG ] -3’), primer TS (18 pmol; tumor tissue were cut into about 1.5 mm3 small pieces, and […]\n5’-[…]-3’), KCl (63 mM), then transplanted into the right flank of nude mice. When EGTA (1 mM), MgCl (1.5 mM), Tween-20 (0.005%), the average tumors reach a volume of about 80 mm3, the […]\nprimer NT (7.5 pmol; 5’-[…]-3’), mice were randomized into 4 groups (n=6), received the […]\nTSNT internal control (0.01 amol; 5’-[…] following treatments: (a) control, received saline solvent; […]\n-3’), primer (b) complex 6 at doses of 8.0 mg/kg daily (dissolve in […]\nCxext (22.5 pmol; 5’-[…] saline, iv); (c) complex 6 at doses of 4.0 mg/kg daily; […]\n[…]-3’), Taq DNA polymerase (2.5 U), and (d) in BEL-7404 model, 5-fluorouracil (5-Fu) as positive telomerase (100 ng). Complexes or/and distilled water control at 20 mg/kg per two days (dissolve in saline, iv); was added ([…]). PCR was performed in an Eppendorf in BEL-7402 model, cisplatin as positive control at 2 mg/ Master cycler equipped with a hot lid and incubated for kg per two days (dissolve in saline, iv).\n30.0 min at 30 °C, followed by 92 °C 30 s, 52 °C 30 s, The tumor volumes and body weight was monitored and 72°C 30 s for 30.0 cycles. After amplification, 8.0 every 3 days, The tumor volumes were estimated by […] loading buffer (5×TBE buffer, 0.2% xylene cyanol, measuring the two dimensions of the tumors using caliper and 0.2% bromophenol blue ) were added to the reaction. and calculated by the formula 1 [1, 6, 14]:\nAn […] of aliquot was loaded onto a nondenaturing V = (length × width2)/2(1) acrylamide gel (19:1, 16%) in 1×TBE buffer and resolved at 200.0 V for 1.0 h. Gels were fixed and then stained with On day 18, the mice were sacrificed, and tumor AgNO3 [8–11]. tissue were dissected out and weighted, tumor growth inhibition rate calculated using formulas 2 and 3 [1, 6,\nIn order to verify whether complexes 4–6 can TGI (%) = (ΔVc − ΔVt)/ΔVc×100%(2) directly regulate c-myc promoter (Pu27) and the IR(%) = (Wc − Wt)/Wc×100%(3) expression of hTRET in BEL-7404 cells, consequently Where ΔVt = tumor volumefinal −tumor volumeinitial inhibiting the telomerase function, we constructed EGFP for compound treated group, ΔVc=tumor volumefinal − and c-myc gene vectors according to those illustrated tumor volumeinitial for vehicle control group; Wt and Wc in Chalfie, Chen and He previous work. The detailed mean the average tumor weight of complex-treated and procedures for the construct of gene (c-myc and EGFP vehicle controlled group respectively. genes) vectors, and the method of transfection assays REFERENCES have been reported by Chalfie, Chen and He [1, 6, 9, 12,"}, "[2]": {"settings": "Cisplatin 2.0 mg/kg per two days iv"}}}
{"compound": "O=C(NCC(O)CO)c1cnc2c3c(cccc13)-c1ccccc1C2=O.[Cl-].[Cl-].[Pt+2]", "note": "(racemic) [ligand 1, R/S-(±)-FOA]", "values": [{"measurement": "IC50", "setting": "MGC80-3 cells", "result": "32.4 ± 0.8", "unit": "µM"}]}
{"compound": "cis-[PtCl2(R-(+)-FOA)] [complex 5]", "values": [{"measurement": "HTG21DC50", "setting": "[1]", "result": 1.26, "unit": "µM"}, {"measurement": "ctDNADC50/HTG21DC50", "setting": "[1]", "result": 50.54}, {"measurement": "ctDNADC50", "setting": "ctDNA", "result": 63.69, "unit": "µM"}, {"measurement": "ctDNADC50/ctDNADC50", "setting": "ctDNA", "result": 1.00}, {"measurement": "Pu27DC50", "setting": "Pu27 (c-myc) G4", "result": 0.89, "unit": "µM"}, {"measurement": "ctDNADC50/Pu27DC50", "setting": "Pu27 (c-myc) G4", "result": 71.56}]}
{"compound": "cis-[PtCl2(S-(–)-FOA)] [complex 6]", "values": [{"measurement": "inhibition in weight", "setting": "BEL-7402 xenograft; 4 mg/kg daily for 18 days", "result": 32.9, "unit": "%"}, {"measurement": "inhibition in weight", "setting": "BEL-7402 xenograft; 8 mg/kg daily for 18 days", "result": 47.1, "unit": "%"}, {"measurement": "Body weight (start)", "setting": "BEL-7402 xenograft; 6 4.0 mg/kg daily iv", "result": "19.1 ± 1.6", "unit": "g"}, {"measurement": "Tumor volume (start)", "setting": "BEL-7402 xenograft; 6 4.0 mg/kg daily iv", "result": "78.7±58.4", "unit": "mm3"}, {"measurement": "Average tumor weight (mean ± SD g)", "setting": "BEL-7402 xenograft; 6 4.0 mg/kg daily iv", "result": "0.84 ± 0.39", "unit": "g"}, {"measurement": "Body weight (End)", "setting": "BEL-7402 xenograft; 6 4.0 mg/kg daily iv", "result": "22.3 ± 1.3", "unit": "g"}, {"measurement": "RBW (%) (End)", "setting": "BEL-7402 xenograft; 6 4.0 mg/kg daily iv", "result": "117.7±6.3", "unit": "%"}, {"measurement": "Tumor volume (End)", "setting": "BEL-7402 xenograft; 6 4.0 mg/kg daily iv", "result": "648.8±242.1", "unit": "mm3"}, {"measurement": "TGI (%)", "setting": "BEL-7402 xenograft; 6 4.0 mg/kg daily iv, day 18, by tumor volume", "result": 32.9, "unit": "%"}, {"measurement": "Inhibition of tumor growth (%)", "setting": "BEL-7402 xenograft; 6 4.0 mg/kg daily iv, day 18, by tumor weight", "result": 29.4, "unit": "%"}, {"measurement": "Body weight (start)", "setting": "BEL-7402 xenograft; 6 8.0 mg/kg daily iv", "result": "20.2 ± 0.7", "unit": "g"}, {"measurement": "Tumor volume (start)", "setting": "BEL-7402 xenograft; 6 8.0 mg/kg daily iv", "result": "79.4±28.4", "unit": "mm3"}, {"measurement": "Average tumor weight (mean ± SD g)", "setting": "BEL-7402 xenograft; 6 8.0 mg/kg daily iv", "result": "0.67 ± 0.46", "unit": "g"}, {"measurement": "Body weight (End)", "setting": "BEL-7402 xenograft; 6 8.0 mg/kg daily iv", "result": "23.4 ± 1.4", "unit": "g"}, {"measurement": "RBW (%) (End)", "setting": "BEL-7402 xenograft; 6 8.0 mg/kg daily iv", "result": "115.5±4.6", "unit": "%"}, {"measurement": "Tumor volume (End)", "setting": "BEL-7402 xenograft; 6 8.0 mg/kg daily iv", "result": "521.0±319.9", "unit": "mm3"}, {"measurement": "HTG21DC50", "setting": "[1]", "result": 0.99, "unit": "µM"}, {"measurement": "ctDNADC50", "setting": "ctDNA", "result": 90.73, "unit": "µM"}, {"measurement": "ctDNADC50/ctDNADC50", "setting": "ctDNA", "result": 1.00}, {"measurement": "Pu27DC50", "setting": "Pu27 (c-myc) G4", "result": 0.82, "unit": "µM"}, {"measurement": "ctDNADC50/Pu27DC50", "setting": "Pu27 (c-myc) G4", "result": 110.67}]}
{"compound": "O=C(NC[C@@H](O)CO)c1cnc2c3c(cccc13)-c1ccccc1C2=O.[Cl-].[Cl-].[Pt+2]", "note": "[ligand 2, R-(+)-FOA]", "values": [{"measurement": "IC50", "setting": "MGC80-3 cells", "result": "45.8 ± 2.8", "unit": "µM"}]}
{"compound": "N.N.[Cl][Pt][Cl]", "note": "[cisplatin, reference compound]", "values": [{"measurement": "Tumor volume (start)", "setting": "BEL-7402 xenograft; [2]", "result": "78.6±37.7", "unit": "mm3"}, {"measurement": "Average tumor weight (mean ± SD g)", "setting": "BEL-7402 xenograft; [2]", "result": "0.38 ± 0.18", "unit": "g"}, {"measurement": "Tumor volume (End)", "setting": "BEL-7402 xenograft; [2]", "result": "329.9±155.2", "unit": "mm3"}]}
{"compound": "cis-[PtCl2(R/S-(±)-FOA)] [complex 4]", "values": [{"measurement": "HTG21DC50", "setting": "[1]", "result": 1.23, "unit": "µM"}, {"measurement": "ctDNADC50/HTG21DC50", "setting": "[1]", "result": 61.68}, {"measurement": "ctDNADC50", "setting": "ctDNA", "result": 75.87, "unit": "µM"}, {"measurement": "ctDNADC50/ctDNADC50", "setting": "ctDNA", "result": 1.00}, {"measurement": "Pu27DC50", "setting": "Pu27 (c-myc) G4", "result": 1.01, "unit": "µM"}, {"measurement": "ctDNADC50/Pu27DC50", "setting": "Pu27 (c-myc) G4", "result": 75.11}]}
{"compound": "O=C(NC[C@H](O)CO)c1cnc2c3c(cccc13)-c1ccccc1C2=O.[Cl-].[Cl-].[Pt+2]", "note": "[ligand 3, S-(–)-FOA]", "values": [{"measurement": "IC50", "setting": "MGC80-3 cells", "result": "35.7 ± 2.9", "unit": "µM"}]}
